In PMC5218480 (PLoS ONE, 2017):

Tested on: MV-4-11 cells
Test: Gene expression microarray analysis (Affymetrix PrimeView) and GSEA
Assay type: cell-based, human
Parameters: RFU PODN (11730768_x_at) / Fold change /veh PODN (11730768_x_at) / RFU LINC00158 (11744669_a_at) / Fold change /veh LINC00158 (11744669_a_at) / RFU DUSP10 (11751237_a_at) / Fold change /veh DUSP10 (11751237_a_at) / RFU ID3 (11757404_x_at) / Fold change /veh ID3 (11757404_x_at) / RFU PLEKHG5 (11737974_s_at) / Fold change /veh PLEKHG5 (11737974_s_at) / RFU LRRC4B (11730491_at) / Fold change /veh LRRC4B (11730491_at) / RFU GIMAP4 (11747438_a_at) / Fold change /veh GIMAP4 (11747438_a_at) / RFU KRT8 (11758183_x_at) / Fold change /veh KRT8 (11758183_x_at) / RFU CNN1 (11734310_a_at) / Fold change /veh CNN1 (11734310_a_at) / RFU VPS37D (11726825_at) / Fold change /veh VPS37D (11726825_at) / RFU C10orf10 (11716522_x_at) / Fold change /veh C10orf10 (11716522_x_at) / RFU KIR2DL2 /// KIR2DL4 /// KIR2DL5A /// KIR2DL5B /// KIR2DS1 /// KIR2DS2 /// KIR2DS3 /// KIR2DS4 /// KIR3DL3 /// KIR3DL3 /// KIR3DS1 (11738374_at) / Fold change /veh KIR2DL2 /// KIR2DL4 /// KIR2DL5A /// KIR2DL5B /// KIR2DS1 /// KIR2DS2 /// KIR2DS3 /// KIR2DS4 /// KIR3DL3 /// KIR3DL3 /// KIR3DS1 (11738374_at) / RFU C1QL1 (11718748_at) / Fold change /veh C1QL1 (11718748_at) / RFU TMPRSS4 (11747572_a_at) / Fold change /veh TMPRSS4 (11747572_a_at) / RFU HAMP (11756126_x_at) / Fold change /veh HAMP (11756126_x_at) / RFU RNFT2 (11725882_a_at) / Fold change /veh RNFT2 (11725882_a_at) / RFU NR4A2 (11747474_a_at) / Fold change /veh NR4A2 (11747474_a_at) / RFU ABCC12 (11746883_a_at) / Fold change /veh ABCC12 (11746883_a_at) / RFU TMEM136 (11760407_x_at) / Fold change /veh TMEM136 (11760407_x_at) / RFU CLDN22 /// WWC2 (11732394_at) / Fold change /veh CLDN22 /// WWC2 (11732394_at) / RFU HLA-DPB1 (11760878_x_at) / Fold change /veh HLA-DPB1 (11760878_x_at) / RFU SPINT1 (11716480_a_at) / Fold change /veh SPINT1 (11716480_a_at) / RFU GAP43 (11754022_s_at) / Fold change /veh GAP43 (11754022_s_at) / RFU A4GNT (11735810_at) / Fold change /veh A4GNT (11735810_at) / RFU PRB3 (11715151_x_at) / Fold change /veh PRB3 (11715151_x_at) / RFU TUBB4B (11761932_at) / Fold change /veh TUBB4B (11761932_at) / RFU CAPN14 (11732068_a_at) / Fold change /veh CAPN14 (11732068_a_at) / RFU TMCC2 (11721928_a_at) / Fold change /veh TMCC2 (11721928_a_at) / RFU IRGQ (11745062_a_at) / Fold change /veh IRGQ (11745062_a_at) / RFU FAM174B (11720279_a_at) / Fold change /veh FAM174B (11720279_a_at) / RFU TMPRSS4 (11748680_a_at) / Fold change /veh TMPRSS4 (11748680_a_at) / RFU FAM212B (11763350_a_at) / Fold change /veh FAM212B (11763350_a_at) / RFU PLEKHG5 (11743358_a_at) / Fold change /veh PLEKHG5 (11743358_a_at) / RFU ZSCAN30 (11745921_a_at) / Fold change /veh ZSCAN30 (11745921_a_at) / RFU CMKLR1 (11741424_a_at) / Fold change /veh CMKLR1 (11741424_a_at) / RFU LOC101060620 /// MAPK8IP1 (11723275_at) / Fold change /veh LOC101060620 /// MAPK8IP1 (11723275_at) / RFU SPTSSB (11747773_x_at) / Fold change /veh SPTSSB (11747773_x_at) / RFU PRSS12 (11739890_at) / Fold change /veh PRSS12 (11739890_at) / RFU BIN1 (11741810_x_at) / Fold change /veh BIN1 (11741810_x_at) / RFU WNT11 (11732464_a_at) / Fold change /veh WNT11 (11732464_a_at) / RFU C10orf10 (11716521_a_at) / Fold change /veh C10orf10 (11716521_a_at) / RFU C5orf56 (11738089_at) / Fold change /veh C5orf56 (11738089_at) / RFU CYB561 (11721691_x_at) / Fold change /veh CYB561 (11721691_x_at) / RFU ANKRD19P (11752326_a_at) / Fold change /veh ANKRD19P (11752326_a_at) / RFU OR2T12 /// OR2T33 /// OR2T8 (11738714_s_at) / Fold change /veh OR2T12 /// OR2T33 /// OR2T8 (11738714_s_at) / RFU VCAN (11748164_a_at) / Fold change /veh VCAN (11748164_a_at) / RFU JSRP1 (11732532_at) / Fold change /veh JSRP1 (11732532_at) / RFU KRTAP10-11 (11738290_x_at) / Fold change /veh KRTAP10-11 (11738290_x_at) / RFU MYO3A (11730013_a_at) / Fold change /veh MYO3A (11730013_a_at) / RFU EBF3 (11725865_a_at) / Fold change /veh EBF3 (11725865_a_at) / RFU CAMK2N1 (11719241_x_at) / Fold change /veh CAMK2N1 (11719241_x_at) / RFU C5orf56 (11738088_a_at) / Fold change /veh C5orf56 (11738088_a_at) / RFU OLFML3 (11715873_a_at) / Fold change /veh OLFML3 (11715873_a_at) / RFU LOC100653217 /// NTM (11731650_a_at) / Fold change /veh LOC100653217 /// NTM (11731650_a_at) / RFU MAPK11 (11762145_a_at) / Fold change /veh MAPK11 (11762145_a_at) / RFU FIZ1 (11724087_x_at) / Fold change /veh FIZ1 (11724087_x_at) / RFU OASL (11726364_x_at) / Fold change /veh OASL (11726364_x_at) / RFU SOX15 (11748057_x_at) / Fold change /veh SOX15 (11748057_x_at) / RFU CD79A (11719716_a_at) / Fold change /veh CD79A (11719716_a_at) / RFU HIST1H1D (11736915_at) / Fold change /veh HIST1H1D (11736915_at) / RFU CASKIN2 (11723855_a_at) / Fold change /veh CASKIN2 (11723855_a_at) / RFU LOC730098 (11760151_x_at) / Fold change /veh LOC730098 (11760151_x_at) / RFU OR4N2 (11742367_at) / Fold change /veh OR4N2 (11742367_at) / RFU PRRT2 (11749266_a_at) / Fold change /veh PRRT2 (11749266_a_at) / RFU SNX32 (11753110_a_at) / Fold change /veh SNX32 (11753110_a_at) / RFU CDHR5 (11726645_a_at) / Fold change /veh CDHR5 (11726645_a_at) / RFU RCAN1 (11760418_a_at) / Fold change /veh RCAN1 (11760418_a_at) / RFU FAM167A (11723789_a_at) / Fold change /veh FAM167A (11723789_a_at) / RFU FAM26E (11764081_at) / Fold change /veh FAM26E (11764081_at) / RFU ISYNA1 (11749810_s_at) / Fold change /veh ISYNA1 (11749810_s_at) / RFU ACY1 (11761880_at) / Fold change /veh ACY1 (11761880_at) / RFU 11764098_at / Fold change /veh 11764098_at / RFU SAMD14 (11745864_x_at) / Fold change /veh SAMD14 (11745864_x_at) / RFU NPB (11741838_a_at) / Fold change /veh NPB (11741838_a_at) / RFU TMPRSS6 (11731388_a_at) / Fold change /veh TMPRSS6 (11731388_a_at) / RFU KRTAP10-2 (11738614_at) / Fold change /veh KRTAP10-2 (11738614_at) / RFU ARHGAP8 /// PRR5-ARHGAP8 (11727945_x_at) / Fold change /veh ARHGAP8 /// PRR5-ARHGAP8 (11727945_x_at) / RFU KRTAP5-7 /// NADSYN1 (11734609_at) / Fold change /veh KRTAP5-7 /// NADSYN1 (11734609_at) / RFU RASL12 (11751679_a_at) / Fold change /veh RASL12 (11751679_a_at) / RFU CDKN2B (11736163_a_at) / Fold change /veh CDKN2B (11736163_a_at) / RFU PRF1 (11729649_at) / Fold change /veh PRF1 (11729649_at) / RFU, ZNF638 /// ZNF638-IT1 / Fold change vs veh, ZNF638 /// ZNF638-IT1 / RFU, PANK3 / Fold change vs veh, PANK3 / RFU, SH3YL1 / Fold change vs veh, SH3YL1 / RFU, ZEB2 / Fold change vs veh, ZEB2 / RFU, NRIP1 / Fold change vs veh, NRIP1 / RFU, PTTG1IP / Fold change vs veh, PTTG1IP / RFU, CAPN2 / Fold change vs veh, CAPN2 / RFU, MED14 / Fold change vs veh, MED14 / RFU, SNORA58 / Fold change vs veh, SNORA58 / RFU, C1orf63 / Fold change vs veh, C1orf63 / RFU, LRRFIP1 / Fold change vs veh, LRRFIP1 / RFU, NDUFAF7 / Fold change vs veh, NDUFAF7 / RFU, SLC12A2 / Fold change vs veh, SLC12A2 / RFU, IBTK / Fold change vs veh, IBTK / RFU, ESF1 / Fold change vs veh, ESF1 / Fold change vs veh, TMEM50B / RFU, TAOK1 / Fold change vs veh, TAOK1 / RFU, ACBD3 / Fold change vs veh, ACBD3 / RFU, TMA16 / Fold change vs veh, TMA16 / RFU, RWDD3 / Fold change vs veh, RWDD3 / RFU, BCAT1 / Fold change vs veh, BCAT1 / RFU, EDEM3 / Fold change vs veh, EDEM3 / RFU, TMEM33 / Fold change vs veh, TMEM33 / RFU, WDR75 / Fold change vs veh, WDR75 / RFU, AHCTF1 / Fold change vs veh, AHCTF1 / RFU, TFRC / Fold change vs veh, TFRC / RFU, ZDHHC17 / Fold change vs veh, ZDHHC17 / RFU, NOM1 / Fold change vs veh, NOM1 / RFU, ARL8B / Fold change vs veh, ARL8B / RFU, ZBTB11 / Fold change vs veh, ZBTB11 / RFU, TAMM41 / Fold change vs veh, TAMM41 / RFU, KIAA1704 /// LOC100996395 / Fold change vs veh, KIAA1704 /// LOC100996395 / RFU, ING1 / Fold change vs veh, ING1 / RFU, TRMT61B / Fold change vs veh, TRMT61B / RFU, FUBP3 / Fold change vs veh, FUBP3 / RFU, TP53 / Fold change vs veh, TP53 / RFU, TNKS2 / Fold change vs veh, TNKS2 / RFU, ZFP14 / Fold change vs veh, ZFP14 / RFU, ACTR2 / Fold change vs veh, ACTR2 / RFU, PPP3R1 / Fold change vs veh, PPP3R1 / RFU, PIK3R1 / Fold change vs veh, PIK3R1 / RFU, HNRNPA1 / Fold change vs veh, HNRNPA1 / RFU, RNF170 / Fold change vs veh, RNF170 / RFU, ZNF28 / Fold change vs veh, ZNF28 / RFU, RNGTT / Fold change vs veh, RNGTT / RFU, OGT / Fold change vs veh, OGT / RFU, BRD1 / Fold change vs veh, BRD1 / RFU, MARS / Fold change vs veh, MARS / RFU, ZNF655 / Fold change vs veh, ZNF655 / RFU, FAHD1 / Fold change vs veh, FAHD1 / RFU, BDP1 / Fold change vs veh, BDP1 / RFU, LRRCC1 / Fold change vs veh, LRRCC1 / RFU, ARID1A / Fold change vs veh, ARID1A / RFU, ZNF146 / Fold change vs veh, ZNF146 / RFU, ZNF330 / Fold change vs veh, ZNF330 / RFU, GPN3 / Fold change vs veh, GPN3 / RFU, C9orf123 / Fold change vs veh, C9orf123 / RFU, N4BP2L2 / Fold change vs veh, N4BP2L2 / RFU, ARFIP1 / Fold change vs veh, ARFIP1 / RFU, FAM179B / Fold change vs veh, FAM179B / RFU, BCL10 / Fold change vs veh, BCL10 / RFU, UHRF1BP1L / Fold change vs veh, UHRF1BP1L / RFU, BET1 / Fold change vs veh, BET1 / RFU, CNOT2 / Fold change vs veh, CNOT2 / RFU, ZNF268 / Fold change vs veh, ZNF268 / Fold change vs veh, ZNF507 / RFU, DGCR2 / Fold change vs veh, DGCR2 / RFU, WDSUB1 / Fold change vs veh, WDSUB1 / Fold change vs veh, HSP90B1 /// MIR3652 / RFU, ADSS / Fold change vs veh, ADSS / RFU, GK / Fold change vs veh, GK / RFU, ZNF148 / Fold change vs veh, ZNF148 / RFU, TAF9 / Fold change vs veh, TAF9 / RFU, SLC1A5 / Fold change vs veh, SLC1A5 / RFU, SLMO2 / Fold change vs veh, SLMO2 / RFU, ABCC4 / Fold change vs veh, ABCC4 / RFU, LOC101060439 /// RAP1B / Fold change vs veh, LOC101060439 /// RAP1B / RFU, RFX7 / Fold change vs veh, RFX7 / RFU, GTPBP10 / Fold change vs veh, GTPBP10 / RFU, CNEP1R1 / Fold change vs veh, CNEP1R1 / RFU, BIVM-ERCC5 /// ERCC5 / Fold change vs veh, BIVM-ERCC5 /// ERCC5 / RFU, ILF3 / Fold change vs veh, ILF3 / RFU 11762660_at / Fold change /veh 11762660_at / RFU VCAN (11757783_s_at) / Fold change /veh VCAN (11757783_s_at) / RFU DDX43 (11728927_at) / Fold change /veh DDX43 (11728927_at) / RFU KRT8 (11758188_x_at) / Fold change /veh KRT8 (11758188_x_at) / RFU NKD1 (11759106_at) / Fold change /veh NKD1 (11759106_at) / RFU SRD5A1 (11742802_a_at) / Fold change /veh SRD5A1 (11742802_a_at) / RFU TPSAB1 /// TPSB2 (11721975_s_at) / Fold change /veh TPSAB1 /// TPSB2 (11721975_s_at) / RFU GSTM3 (11746129_a_at) / Fold change /veh GSTM3 (11746129_a_at) / RFU IL23R (11737362_x_at) / Fold change /veh IL23R (11737362_x_at) / RFU TMEM51 (11727254_a_at) / Fold change /veh TMEM51 (11727254_a_at) / RFU PIWIL2 (11732686_x_at) / Fold change /veh PIWIL2 (11732686_x_at) / RFU ORM1 (11744905_x_at) / Fold change /veh ORM1 (11744905_x_at) / RFU CCDC152 (11743942_at) / Fold change /veh CCDC152 (11743942_at) / RFU ECM1 (11717891_a_at) / Fold change /veh ECM1 (11717891_a_at) / RFU IL23R (11748794_a_at) / Fold change /veh IL23R (11748794_a_at) / RFU TNFAIP8L3 (11732012_x_at) / Fold change /veh TNFAIP8L3 (11732012_x_at) / RFU MBOAT4 (11741988_at) / Fold change /veh MBOAT4 (11741988_at) / RFU 11764193_at / Fold change /veh 11764193_at / RFU TMEM53 (11763286_at) / Fold change /veh TMEM53 (11763286_at) / RFU MAGEB2 (11727129_at) / Fold change /veh MAGEB2 (11727129_at) / RFU TMEM200A (11744735_a_at) / Fold change /veh TMEM200A (11744735_a_at) / RFU CCDC152 (11751479_a_at) / Fold change /veh CCDC152 (11751479_a_at) / RFU FAM211A (11726209_a_at) / Fold change /veh FAM211A (11726209_a_at) / RFU RGS16 (11746705_a_at) / Fold change /veh RGS16 (11746705_a_at) / RFU VCAN (11755009_s_at) / Fold change /veh VCAN (11755009_s_at) / RFU RHOB (11743442_s_at) / Fold change /veh RHOB (11743442_s_at) / RFU RGS16 (11720943_a_at) / Fold change /veh RGS16 (11720943_a_at) / RFU RGS16 (11720944_at) / Fold change /veh RGS16 (11720944_at) / RFU, VPS4B / Fold change vs veh, VPS4B / RFU, CREB1 / Fold change vs veh, CREB1 / RFU, DNAJC13 / Fold change vs veh, DNAJC13 / RFU, GNAQ / Fold change vs veh, GNAQ / RFU, CDK5R1 / Fold change vs veh, CDK5R1 / RFU, ZRANB3 / Fold change vs veh, ZRANB3 / RFU, CUL4A / Fold change vs veh, CUL4A / RFU, CCNY / Fold change vs veh, CCNY / RFU, UFL1 / Fold change vs veh, UFL1 / RFU, COG3 / Fold change vs veh, COG3 / RFU, DIAPH2 / Fold change vs veh, DIAPH2 / RFU, SKA2 / Fold change vs veh, SKA2 / RFU, AFF3 / Fold change vs veh, AFF3 / RFU, LMF1 / Fold change vs veh, LMF1 / RFU, IPO11 / Fold change vs veh, IPO11 / RFU, DFFB / Fold change vs veh, DFFB / RFU, FOXP1 / Fold change vs veh, FOXP1 / RFU, CARD8 / Fold change vs veh, CARD8 / RFU, STRN3 / Fold change vs veh, STRN3 / RFU, ADK / Fold change vs veh, ADK / RFU, RASSF2 / Fold change vs veh, RASSF2 / RFU, WIPF1 / Fold change vs veh, WIPF1 / RFU, LARP1B / Fold change vs veh, LARP1B / RFU, RASA1 / Fold change vs veh, RASA1 / RFU, RB1 / Fold change vs veh, RB1 / RFU, PPFIA1 / Fold change vs veh, PPFIA1 / RFU, MAT2A / Fold change vs veh, MAT2A / RFU, CCT5 / Fold change vs veh, CCT5 / RFU, WDR92 / Fold change vs veh, WDR92 / RFU, CUX1 / Fold change vs veh, CUX1 / RFU, TTC7A / Fold change vs veh, TTC7A / RFU, TMEM135 / Fold change vs veh, TMEM135 / RFU, DEPTOR / Fold change vs veh, DEPTOR / RFU, CPM / Fold change vs veh, CPM / RFU, DNAJB6 / Fold change vs veh, DNAJB6 / RFU, CACNA2D3 / Fold change vs veh, CACNA2D3 / RFU, DTX4 / Fold change vs veh, DTX4 / RFU, TFCP2 / Fold change vs veh, TFCP2 / RFU, GMCL1 /// GMCL1P1 / Fold change vs veh, GMCL1 /// GMCL1P1 / RFU, AEBP2 / Fold change vs veh, AEBP2 / RFU, SNHG1 /// SNORD22 /// SNORD25 /// SNORD26 /// SNORD27 /// SNORD28 /// SNORD29 /// SNORD31 / Fold change vs veh, SNHG1 /// SNORD22 /// SNORD25 /// SNORD26 /// SNORD27 /// SNORD28 /// SNORD29 /// SNORD31 / Fold change (Aza/veh), C12orf56 (ProbeSet 11735607_a_at) / Fold change (ACY-1035/veh), C12orf56 (ProbeSet 11735607_a_at) / Fold change (Aza/veh), FGFR1OP (ProbeSet 11751329_s_at) / Fold change (ACY-1035/veh), FGFR1OP (ProbeSet 11751329_s_at) / Fold change (Aza/veh), VPS36 (ProbeSet 11739960_a_at) / Fold change (ACY-1035/veh), VPS36 (ProbeSet 11739960_a_at) / RFU SYPL1 (11715823_x_at) / Fold change /veh SYPL1 (11715823_x_at) / RFU IGFBP7 (11715501_s_at) / Fold change /veh IGFBP7 (11715501_s_at) / RFU REEP3 (11722064_at) / Fold change /veh REEP3 (11722064_at) / RFU IGLL1 (11728026_x_at) / Fold change /veh IGLL1 (11728026_x_at): dose or concentration left out as unconfirmed
Details: ProbeSet 11726703_a_at; LIST B

Nc1ccc(-c2cccs2)cc1NC(=O)c1ccc2c(c1)cc(C1CC1)n2CCN1CCOCC1 [ACY-1035]
RFU, BCL10: 67.93 RFU
